{"source": "patent US20250352536A1", "about": "“NEURORESTORATION COMPOSITIONS IMPLEMENTING MULTIPLE NEUROPLASTICITY INDUCING MECHANISMS OF ACTION” (Neuro-Innovators, Inc., priority 2022, published 2025)", "origin": "cited, not measured here", "tested_on": "recurrent stroke", "details": "compared with aspirin, previous clinical trials", "data": [{"smiles": "O=C1CCc2cc(OCCCCc3nnnn3C3CCCCC3)ccc2N1", "note": "[cilostazol, Cilostazol]", "values": [{"measurement": "hemorrhagic events", "value": "fewer hemorrhagic events"}, {"measurement": "incidence of recurrent stroke", "value": "significantly reduce the incidence of recurrent stroke"}]}]}
